pIC50: −log10 of the molar value.
Legend:
[1] = test system: C2C12; experiment: Median lethal dosage (IC50) against normal cell lines; type: cell-based; details: Mus musculus; C2C12 normal cells
[2] = test system: RKO Colorectal cancer; experiment: Median lethal dosage (IC50) against tumor cell lines; type: cell-based; details: Homo sapiens; RKO colorectal cancer tumor cells
[3] = test system: MEF; experiment: Median lethal dosage (IC50) against normal cell lines; type: cell-based; details: Mus musculus; MEF normal cells
[4] = test system: normal cells; experiment: Cell death/apoptosis (PI Sub-G1 flow cytometry, MTT, Annexin V); type: cell-based; details: 48 h
Protocol: (§1) Ethidium bromide was purchased from Sigma (E7637) and treated as follows. Cancer and normal cells of various tissue origins with approximately 40% growth abundance were treated with 0.1, 0.4, and 1 μg/ml for 48 h, followed by PI staining and cycle detection by flow cytometry, statistical analysis of genomic DNA break (Sub-G1) cells, or cell viability by MTT method.
(§2) In support of this, cancer cells and normal cells from various tissues with growth abundance of about 40% were treated with 1, 2, and 5 μM for 48 h, respectively, and then observed the growth of the cells by light microscopy, followed by PI staining, detection and statistical analysis of genomic DNA break (Sub-G1) cells by flow cytometry (FIG. 3), or cell apoptosis detection by Annexin V staining method (FIG. 4).

[5] = test system: cancer cells; experiment: as above; type: cell-based; details: 48 h
Protocol: as §1, §2

[6] = test system: LO2; experiment: Median lethal dosage (IC50) against normal cell lines; type: cell-based; details: Homo sapiens, L02; LO2 normal cells
[7] = test system: normal cell line GES1; experiment: Mitochondrial function by Seahorse; type: cell-based; details: Seahorse after 6 hours
Protocol: To further verify the effect of ethidium bromide on mitochondrial function, various cell lines were treated with ethidium bromide and mitochondrial function was tested by using Seahorse after 6 hours.

[8] = test system: tumor cells; experiment: Median lethal dosage, summary over tumor cells; type: cell-based; details: vast majority of the tumor cells of Table 1; read-out: median lethal dosages against tumor cells
[9] = test system: B16 Melanoma; experiment: Median lethal dosage (IC50) against tumor cell lines; type: cell-based; details: Mus musculus; B16 melanoma tumor cells
[10] = test system: Sk-Hep1 Liver cancer; experiment: as above; type: cell-based; details: Homo sapiens; Sk-Hep1 liver cancer tumor cells
[11] = test system: mTOR, p-NFkB, p-Erk, cleaved Caspase3; experiment: Signaling molecules in cells by Western blotting; type: cell-based
Protocol: We investigated the mechanism of ethidium bromide-induced apoptosis in tumor cells. First, tumor tissues treated with ethidium bromide (mice shown in FIGS. 7 and 8, treated for 4 weeks at 20 mg/Kg per day) were subjected to SDS-Loading buffer boiling lysis and tested for associated signaling pathways by Western blotting.
In order to further determine how ethidium bromide activates phosphorylation of Erk and Caspase3 cleavage and induces apoptosis, we also tested with different cell lines treated with ethidium bromide for 10 min, 30 min, 1, 2, and 6 h.

[12] = test system: pancreatic cancer cells Panel; experiment: Ectopic lung metastasis after intravenous injection of pancreatic cancer cells in nude mice; type: in vivo; details: intravenous 5 mg/Kg per day, start about 3 weeks after cell injection, 4 weeks
Protocol: In addition, to further investigate the effect of ethidium bromide on ectopic tissue metastatic tumors, we injected 2×10^6 pancreatic cancer cells Panel intravenously into nude mice. After ectopic tissue metastasis, tumors formed primarily in the lungs. After approximately 3 weeks, intravenous administration of 5 mg/Kg ethidium bromide per day was started after the tumor had already grown in the lung tissue (FIG. 15A). The mice were sacrificed after 4 weeks of administration and the lungs were removed for test.

[13] = test system: HepG2 Liver cancer; experiment: Median lethal dosage (IC50) against tumor cell lines; type: cell-based; details: Homo sapiens; HepG2 liver cancer tumor cells
[14] = test system: colorectal cancer cells RKO; experiment: Subcutaneous RKO solid tumor in nude mice, gavage administration; type: in vivo; details: gavage 20 mg/Kg
Protocol: We also tested the anti-tumor activity of ethidium bromide against subcutaneous solid tumors. 2×10^6 colorectal cancer cells RKO were injected subcutaneously. About 1 week later, when solid tumors grew subcutaneously in nude mice, gavage administration (20 mg/Kg) was started. The size of the tumors was measured twice a week.

[15] = test system: Hela Cervical cancer; experiment: Median lethal dosage (IC50) against tumor cell lines; type: cell-based; details: Homo sapiens; Hela cervical cancer tumor cells
[16] = test system: Nalm-6 Leukemia; experiment: as above; type: cell-based; details: Homo sapiens; Nalm-6 leukemia tumor cells
[17] = cell lines treated 10 min, 30 min, 1, 2, 6 h

CC[n+]1c(-c2ccccc2)c2cc(N)ccc2c2ccc(N)cc21 [ethidium bromide, Ethidium bromide]
pIC50 [1]: 4.07 | pIC50 [2]: 5.84 | pIC50 [3]: 4.41 | growth inhibition / apoptosis ([4]; 0.1, 0.4, 1 μg/ml, Chang, LO2, 3T3-L1): inhibited growth at most and cannot induce apoptosis | growth inhibition / apoptosis ([4]; 1, 2, 5 μM, LO2, chang, GES1): only inhibited growth and cannot induce apoptosis | induction of cell death ([5]; 0.1, 0.4, 1 μg/ml, SK-Hep1, BEL-7404, B16): can selectively induce the death of a wide range of cancer cells | induction of cell death ([5]; 1, 2, 5 μM, SK-Hep1, 7404, AGS, RKO): can selectively induce the death of cancer cells in many different tissues | pIC50 [6]: 4.29 | oxygen consumption, glycolysis level, glycolysis rate [7]: decreased only at higher concentrations such as 5 μM | pIC50 [8]: > 5.00 | pIC50 [9]: 4.95 | pIC50 [10]: 5.90 | time at which mTOR was activated [11, 17]: 10 min | time at which p-Erk was activated [11, 17]: 1 h | time at which p-NFkB was activated [11, 17]: 30 min | cleaved Caspase3 and Erk phosphorylation in vitro ([11]; in vitro cells (AGS, GES1, RKO), 3 days of treatment): significant increase in the phosphorylation levels of both cleaved Caspase3 and Erk | tumors in the lung tissues vs control [12]: significantly smaller than those in the control group | pIC50 [13]: 5.09 | viability of nude mice [14]: contributed to improve the viability of nude mice | inhibitory effect on subcutaneous solid tumors ([14]; start about 1 week after cell injection): very unsatisfactory | pIC50 [15]: 5.47 | pIC50 [16]: 5.93

Reference: patent US20250152577A1, “Pharmaceutical Composition of Ethidium Bromide and Use in Treating Cancer” (RUIJIN HOSPITAL, SHANGHAI JIAOTONG UNIVERSITY SCHOOL OF …, priority 2022, published 2025)
